Square brackets hold non-standard residues; d marks the D form. Peptide text beside a SMILES is read from it. Nle = CCCC[C@H](N)C(=O)O
Tested on: rat pituitary cells in tissue culture
Experiment: Bioassay of hGRF analogs: GH release from cultured pituitary cells
Type: cell-based
Conditions: for Dose Needed to Release 2.01 μg/ml of GH (ED50 value for hGRF) / Maximum GH Released / Relative Maximum Activity (% of hGRF): from curves generated by ALLFIT; for GH release at dosages comparable to native hGRF: referring to Table 1; for Potency: (ED50 of hGRF)/(Dose required to give same response as ED50 of hGRF): relative to hGRF(1-44)-NH2 = 100
Source text: The assay for biological activity, which is based on the ability to stimulate release of growth hormone in rat pituitary cells in tissue culture, has been described in detail (Culler, M. D.; Kenjo, T.: Obara, N.; Arimuar, A., Stimulation of cAMP. Accumulation by Human Pancreatic GH-Releasing Factor-(1-44). Am. J. Physiol. 1984, 247 (Endocrinol.Metab.10), E609-E615.
ALLFIT, the 4-parameter logistic curve fitting program available from the Biomedical Computer Technology Information Center, Vanderbilt Medical Center, Nashville TN, was used to determine ED50 and maximal stimulated values from the data. In several instances, the amount of GH released reached a maximum value and decreased with further increasing doses of the hGRF analogs. To simplify the data analysis, these values were not used in the calculations. The calculated maximal responses, the doses of the analog required to release the amount of GH released at the ED50 of the standard (hGRF) and the potencies of the analogs relative to hGRF, are given in Table 2. Generally all novel analogs were fully active and were able to stimulate the release of growth hormone with maximal values of GH release being within 80% of the value for natural hGRF.

SMILES	GH Released (mean ± (S.E.)) (Dose 1 × 10^-6 M)	GH Released (mean ± (S.E.)) (Dose 1 × 10^-7 M)	GH Released (mean ± (S.E.)) (Dose 1 × 10^-8 M)	GH Released (mean ± (S.E.)) (Dose 1 × 10^-9 M)	GH Released (mean ± (S.E.)) (Dose 1 × 10^-10 M)	GH Released (mean ± (S.E.)) (Dose 1 × 10^-11 M)	Dose Needed to Release 2.01 μg/ml of GH (ED50 value for hGRF) [nM]	Maximum GH Released [µg/mL]	Relative Maximum Activity (% of hGRF) [%]	GH release at dosages comparable to native hGRF	Potency: (ED50 of hGRF)/(Dose required to give same response as ED50 of hGRF) [%]	Potency: (ED50 of hGRF)/(Dose required to give same response as ED50 of hGRF) (listed as [Asn^3,Asp^8,Asn^25,Nle^27 ]-hGRF(1-31)--NH2) [%]	Potency: (ED50 of hGRF)/(Dose required to give same response as ED50 of hGRF) (listed as [Asn^3,Asp^8,Nle^27 ]-hGRF(1-31)--NH2) [%]	times more potent than hGRF(1-44)--NH2 (on a molar basis) [times]
CCCC[C@H](NC(=O)[C@@H](NC(=O)[C@H](CC(N)=O)NC(=O)[C@H](CCC(N)=O)NC(=O)[C@H](CC(C)C)NC(=O)[C@H](CC(C)C)NC(=O)[C@H](CCCCN)NC(=O)[C@H](CCCNC(=N)N)NC(=O)[C@H](C)NC(=O)[C@H](CO)NC(=O)[C@H](CC(C)C)NC(=O)[C@H](CCC(N)=O)NC(=O)CNC(=O)[C@H](CC(C)C)NC(=O)[C@@H](NC(=O)[C@H](CCCCN)NC(=O)[C@H](CCCNC(=N)N)NC(=O)[C@H](Cc1ccc(O)cc1)NC(=O)[C@H](CO)NC(=O)[C@H](CC(N)=O)NC(=O)[C@@H](NC(=O)[C@H](Cc1ccccc1)NC(=O)[C@@H](NC(=O)[C@H](C)NC(=O)[C@H](CC(N)=O)NC(=O)[C@H](C)NC(=O)[C@@H](N)Cc1ccc(O)cc1)[C@@H](C)CC)[C@@H](C)O)C(C)C)[C@@H](C)CC)C(=O)N[C@@H](CO)C(=O)N[C@@H](CCCNC(=N)N)C(=O)N[C@@H](CCC(N)=O)C(=O)N[C@@H](CCC(N)=O)C(N)=O [[Asn^3,Asn^25,Nle^27], [Asn^3,Asn^25,Nle^27]-hGRF(1-31)--NH2] (H-YANAIFTNSYRKVLGQLSARKLLQNI[Nle]SRQQ-NH2)	2.96 (0.11) μg/mL	3.30 (0.08) μg/mL	3.21 (0.13) μg/mL	1.58 (0.07) μg/mL	0.81 (0.06) μg/mL	0.65 (0.03) μg/mL	1.54	3.33	101	induced GH release in dosages comparable to those for native hGRF	21			
CCCC[C@H](NC(=O)[C@@H](NC(=O)[C@H](CC(N)=O)NC(=O)[C@H](CCC(N)=O)NC(=O)[C@H](CC(C)C)NC(=O)[C@H](CC(C)C)NC(=O)[C@H](CCCCN)NC(=O)[C@H](CCCNC(=N)N)NC(=O)[C@H](C)NC(=O)[C@H](CO)NC(=O)[C@H](CC(C)C)NC(=O)[C@H](CCC(N)=O)NC(=O)CNC(=O)[C@H](CC(C)C)NC(=O)[C@@H](NC(=O)[C@H](CCCCN)NC(=O)[C@H](CCCNC(=N)N)NC(=O)[C@H](Cc1ccc(O)cc1)NC(=O)[C@H](CO)NC(=O)[C@H](CC(=O)O)NC(=O)[C@@H](NC(=O)[C@H](Cc1ccccc1)NC(=O)[C@@H](NC(=O)[C@H](C)NC(=O)[C@H](CC(N)=O)NC(=O)[C@H](C)NC(=O)[C@@H](N)Cc1ccc(O)cc1)[C@@H](C)CC)[C@@H](C)O)C(C)C)[C@@H](C)CC)C(=O)N[C@@H](CO)C(=O)N[C@@H](CCCNC(=N)N)C(=O)N[C@@H](CCC(N)=O)C(=O)N[C@@H](CCC(N)=O)C(N)=O [[Asn^3,Asp^8,Asn^25,Nle^27], [Asn^3,Asp^8,Asn^25,Nle^27]-hGRF(1-31)--NH2] (H-YANAIFTDSYRKVLGQLSARKLLQNI[Nle]SRQQ-NH2)	3.12 (0.12) μg/mL	2.94 (0.11) μg/mL	1.88 (0.07) μg/mL	0.75 (0.01) μg/mL	0.61 (0.05) μg/mL	0.60 (0.02) μg/mL	12.05	3.11	94	did not induce GH release at dosages comparable to native hGRF	3	5		
CCCC[C@H](NC(=O)[C@@H](NC(=O)[C@H](CC(=O)O)NC(=O)[C@H](CCC(N)=O)NC(=O)[C@H](CC(C)C)NC(=O)[C@H](CC(C)C)NC(=O)[C@H](CCCCN)NC(=O)[C@H](CCCNC(=N)N)NC(=O)[C@H](C)NC(=O)[C@H](CO)NC(=O)[C@H](CC(C)C)NC(=O)[C@H](CCC(N)=O)NC(=O)CNC(=O)[C@H](CC(C)C)NC(=O)[C@@H](NC(=O)[C@H](CCCCN)NC(=O)[C@H](CCCNC(=N)N)NC(=O)[C@H](Cc1ccc(O)cc1)NC(=O)[C@H](CO)NC(=O)[C@H](CC(=O)O)NC(=O)[C@@H](NC(=O)[C@H](Cc1ccccc1)NC(=O)[C@@H](NC(=O)[C@H](C)NC(=O)[C@H](CC(N)=O)NC(=O)[C@H](C)NC(=O)[C@@H](N)Cc1ccc(O)cc1)[C@@H](C)CC)[C@@H](C)O)C(C)C)[C@@H](C)CC)C(=O)N[C@@H](CO)C(=O)N[C@@H](CCCNC(=N)N)C(=O)N[C@@H](CCC(N)=O)C(=O)N[C@@H](CCC(N)=O)C(N)=O [[Asn^3,Asp^8,Nle^27], [Asn^3,Asp^8,Nle^27]-hGRF(1-31)--NH2] (H-YANAIFTDSYRKVLGQLSARKLLQDI[Nle]SRQQ-NH2)	2.74 (0.19) μg/mL	3.30 (0.27) μg/mL	2.27 (0.07) μg/mL	1.04 (0.05) μg/mL	0.58 (0.04) μg/mL	0.65 (0.04) μg/mL	6.74	3.53	107	did not induce GH release at dosages comparable to native hGRF	5		3	
CCCC[C@H](NC(=O)[C@@H](NC(=O)[C@H](CC(=O)O)NC(=O)[C@H](CCC(N)=O)NC(=O)[C@H](CC(C)C)NC(=O)[C@H](CC(C)C)NC(=O)[C@H](CCCCN)NC(=O)[C@H](CCCNC(=N)N)NC(=O)[C@H](C)NC(=O)[C@H](CO)NC(=O)[C@H](CC(C)C)NC(=O)[C@H](CCC(N)=O)NC(=O)CNC(=O)[C@H](CC(C)C)NC(=O)[C@@H](NC(=O)[C@H](CCCCN)NC(=O)[C@H](CCCNC(=N)N)NC(=O)[C@H](Cc1ccc(O)cc1)NC(=O)[C@H](CO)NC(=O)[C@H](CC(N)=O)NC(=O)[C@@H](NC(=O)[C@H](Cc1ccccc1)NC(=O)[C@@H](NC(=O)[C@H](C)NC(=O)[C@H](CC(N)=O)NC(=O)[C@H](C)NC(=O)[C@@H](N)Cc1ccc(O)cc1)[C@@H](C)CC)[C@@H](C)O)C(C)C)[C@@H](C)CC)C(=O)N[C@@H](CO)C(=O)N[C@@H](CCCNC(=N)N)C(=O)N[C@@H](CCC(N)=O)C(=O)N[C@@H](CCC(N)=O)C(N)=O [[Asn^3,Nle^27], [Asn^3, Nle^27]-hGRF(1-31)--NH2] (H-YANAIFTNSYRKVLGQLSARKLLQDI[Nle]SRQQ-NH2)	3.22 (0.16) μg/mL	3.05 (0.09) μg/mL	2.90 (0.12) μg/mL	2.40 (0.06) μg/mL	0.97 (0.01) μg/mL	0.67 (0.08) μg/mL	0.58	3.09	93	induced GH release in dosages comparable to those for native hGRF	55			
CCCC[C@H](NC(=O)[C@@H](NC(=O)[C@H](CC(N)=O)NC(=O)[C@H](CCC(N)=O)NC(=O)[C@H](CC(C)C)NC(=O)[C@H](CC(C)C)NC(=O)[C@H](CCCCN)NC(=O)[C@H](CCCNC(=N)N)NC(=O)[C@H](C)NC(=O)[C@H](CO)NC(=O)[C@H](CC(C)C)NC(=O)[C@H](CCC(N)=O)NC(=O)CNC(=O)[C@H](CC(C)C)NC(=O)[C@@H](NC(=O)[C@H](CCCCN)NC(=O)[C@H](CCCNC(=N)N)NC(=O)[C@H](Cc1ccc(O)cc1)NC(=O)[C@H](CO)NC(=O)[C@H](CC(N)=O)NC(=O)[C@@H](NC(=O)[C@H](Cc1ccccc1)NC(=O)[C@@H](NC(=O)[C@H](C)NC(=O)[C@H](CC(=O)O)NC(=O)[C@H](C)NC(=O)[C@@H](N)Cc1ccc(O)cc1)[C@@H](C)CC)[C@@H](C)O)C(C)C)[C@@H](C)CC)C(=O)N[C@@H](CO)C(=O)N[C@@H](CCCNC(=N)N)C(=O)N[C@@H](CCC(N)=O)C(=O)N[C@@H](CCC(N)=O)C(N)=O [[Asn^25,Nle^27], [Asn^25,Nle^27]-hGRF(1-31)--NH2] (H-YADAIFTNSYRKVLGQLSARKLLQNI[Nle]SRQQ-NH2)	3.22 (0.24) μg/mL	3.22 (0.09) μg/mL	3.10 (0.12) μg/mL	3.12 (0.15) μg/mL	1.84 (0.06) μg/mL	0.72 (0.05) μg/mL	0.12	3.18	96	induced GH release in dosages comparable to those for native hGRF	267			2.7

— patent publication US4801456A, “Growth hormone-releasing factor analogs” (International Minerals & Chemical Corp., priority 1987, dated 1989)
